# Values of other authors as cited in paper PMC10138554, “Insights into the Microbicidal, Antibiofilm, Antioxidant and Toxicity Profile of New O-Aryl-Carbamoyl-Oxymino-Fluorene Derivatives” (International Journal of Molecular Sciences, 2023).
# Test system: Artemia franciscana Kellog nauplii
# Conditions: comparison value for brine shrimp toxicity; cited from earlier work
compound,measurement,value
O=P1(N(CCCl)CCCl)NCCCO1 (stereo not shown) [cyclophosphamide],IC50 (toxicity),16.3 µg/mL
